Test results as given in ChEMBL document CHEMBL5727342, “Imidazo[4,5-C]pyridine and pyrrolo[2,3-C]pyridine derivatives as SSAO inhibitors” (2018).

Biological target: Voltage-gated inwardly rectifying potassium channel KCNH2 (Homo sapiens, UniProt Q12809)
Assay: Electrophysiological recordings were made from a Chinese Hamster Lung cell line stably expressing the full length hERG channel. Single cell ion currents were measured in the perforated patch clamp configuration (100 ug/mL amphoterocin) at room temperature using an IonWorks Quattro instrument. The internal solution contained 140 mM KCl, 1 mM MgCl2, 1 mM EGTA and 20 mM HEPES and was buffered to pH 7.3. […] This sequence was repeated 5 times at a frequency of 0.25 Hz. […] Compounds were incubated for 6-7 min prior to a second measurement of the hERG signal using an identical pulse train.

Sequence of Voltage-gated inwardly rectifying potassium channel KCNH2 (Q12809 whole entry): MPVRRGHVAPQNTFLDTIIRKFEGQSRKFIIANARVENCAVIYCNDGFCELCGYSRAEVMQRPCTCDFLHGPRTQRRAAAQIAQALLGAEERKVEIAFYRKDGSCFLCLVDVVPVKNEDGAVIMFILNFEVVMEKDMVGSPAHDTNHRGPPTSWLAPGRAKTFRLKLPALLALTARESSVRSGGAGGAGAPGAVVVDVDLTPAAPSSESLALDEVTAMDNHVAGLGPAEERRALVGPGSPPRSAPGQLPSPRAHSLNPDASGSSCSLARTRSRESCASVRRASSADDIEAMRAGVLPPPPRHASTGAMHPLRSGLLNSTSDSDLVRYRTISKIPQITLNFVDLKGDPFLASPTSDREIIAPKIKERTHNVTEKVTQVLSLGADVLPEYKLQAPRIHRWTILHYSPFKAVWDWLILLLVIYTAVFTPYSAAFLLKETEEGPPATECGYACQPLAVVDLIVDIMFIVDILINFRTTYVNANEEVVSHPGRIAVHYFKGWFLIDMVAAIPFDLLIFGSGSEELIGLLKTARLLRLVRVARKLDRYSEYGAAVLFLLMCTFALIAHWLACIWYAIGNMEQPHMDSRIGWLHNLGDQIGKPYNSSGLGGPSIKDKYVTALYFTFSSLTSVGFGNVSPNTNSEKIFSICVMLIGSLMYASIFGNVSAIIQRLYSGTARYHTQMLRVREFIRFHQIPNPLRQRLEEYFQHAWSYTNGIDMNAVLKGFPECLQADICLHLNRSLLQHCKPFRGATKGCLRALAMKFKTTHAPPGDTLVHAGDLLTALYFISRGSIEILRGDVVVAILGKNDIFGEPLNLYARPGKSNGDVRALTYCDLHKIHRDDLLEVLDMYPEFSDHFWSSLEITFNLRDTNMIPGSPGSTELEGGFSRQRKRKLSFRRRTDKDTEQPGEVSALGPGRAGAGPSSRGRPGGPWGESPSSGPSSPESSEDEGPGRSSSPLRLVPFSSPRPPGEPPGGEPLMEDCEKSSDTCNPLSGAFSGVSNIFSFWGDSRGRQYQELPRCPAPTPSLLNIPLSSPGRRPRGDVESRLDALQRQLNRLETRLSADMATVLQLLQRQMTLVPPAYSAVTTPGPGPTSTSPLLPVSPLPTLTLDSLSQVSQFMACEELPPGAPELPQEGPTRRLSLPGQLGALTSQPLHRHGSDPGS

## Clc1ccc(-n2c(-c3ccncc3)nc3ccncc32)cc1
  IC50: in the range around 5.5 µM
